Literature values as cited in article PMC6381106 (Scientific Reports, 2019).

Tested on: TLR4
Conditions: literature; ref [62]–[65]; cited from earlier work
Description: Multiple anti-inflammatory immunomodulatory therapies have been developed to ameliorate proinflammation following bacterial infection. […] Therefore, novel therapeutic approaches that decrease inflammatory responses should be developed, and researchers should expand the focus beyond agents that only treat the initial infe ...

For `CCOC(=O)C1=CCCC[C@H]1S(=O)(=O)Nc1ccc(F)cc1Cl` [TAK-242], the “outcome in clinical trials (TLR4 inhibitor; in words)” value is listed as “unsuccessful in clinical trials”.
